# Like-named read-outs stand apart in the source and are kept apart here.
# Tests used:
# [1] = biological target: human pregnane X receptor (hPXR) (Homo sapiens, UniProt O75469); settings: at 5.56 μM
# NS5B P495L = NS5B P495L (Hepatitis C virus genotype 1b, UniProt Q9WMX2, P2914L); test: biochemical
# CYP 3A4 = CYP 3A4 (Homo sapiens, UniProt P08684); test: in vitro
# in vitro [2] = settings: monkey, microsomes
# [3] = tested on: chronic HCV genotype 1 infection; settings: patients, cited from earlier work
# in vivo = settings: rat
# [4] = tested on: HCV genotype 1b (Con1) replicon in Huh-7; test: microbe, parasite or virus in culture; format: cell-based; settings: Hepatitis C virus, GETYPE1B, Huh-7, read-out: potency in the replicon assays
# in vitro [5] = test: in vitro
# [6] = biological target: recombinant wild-type NS5B (genotype 1b, Con1) (Hepatitis C virus genotype 1b, UniProt Q9WMX2); test: biochemical
# in vitro [7] = format: in vitro ADME; settings: human, microsomes
# [8] = tested on: BVDV, polio, rhino, corona, coxsackie, influenza, and human immunodeficiency viruses (HIV); test: organism not typed; format: cell-based; settings: read-out: EC50 against panel of viruses
# [9] = rat; for liver levels: satellite study
# [10] = biological target: human phosphodiesterase 4; test: Phosphodiesterase 4 functional assay; format: biochemical; settings: read-out: IC50 phosphodiesterase 4 functional assay
# physchem = settings: pKa values, zwitterionic form
# CYP 3A4, sequence (P08684 whole entry): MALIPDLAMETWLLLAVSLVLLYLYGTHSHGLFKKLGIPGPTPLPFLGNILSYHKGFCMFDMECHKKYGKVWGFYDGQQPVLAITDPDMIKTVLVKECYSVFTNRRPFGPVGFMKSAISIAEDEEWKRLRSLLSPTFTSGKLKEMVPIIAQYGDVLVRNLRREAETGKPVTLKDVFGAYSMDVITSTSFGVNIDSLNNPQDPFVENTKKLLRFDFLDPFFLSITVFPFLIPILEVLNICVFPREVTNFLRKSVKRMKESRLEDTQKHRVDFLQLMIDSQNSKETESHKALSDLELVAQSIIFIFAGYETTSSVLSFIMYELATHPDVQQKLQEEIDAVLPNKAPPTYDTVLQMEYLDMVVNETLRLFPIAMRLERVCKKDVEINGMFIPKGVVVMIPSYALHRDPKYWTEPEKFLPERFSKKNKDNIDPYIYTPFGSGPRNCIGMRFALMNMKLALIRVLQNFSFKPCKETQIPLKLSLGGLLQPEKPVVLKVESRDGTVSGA
# human pregnane X receptor (hPXR), sequence (O75469 whole entry): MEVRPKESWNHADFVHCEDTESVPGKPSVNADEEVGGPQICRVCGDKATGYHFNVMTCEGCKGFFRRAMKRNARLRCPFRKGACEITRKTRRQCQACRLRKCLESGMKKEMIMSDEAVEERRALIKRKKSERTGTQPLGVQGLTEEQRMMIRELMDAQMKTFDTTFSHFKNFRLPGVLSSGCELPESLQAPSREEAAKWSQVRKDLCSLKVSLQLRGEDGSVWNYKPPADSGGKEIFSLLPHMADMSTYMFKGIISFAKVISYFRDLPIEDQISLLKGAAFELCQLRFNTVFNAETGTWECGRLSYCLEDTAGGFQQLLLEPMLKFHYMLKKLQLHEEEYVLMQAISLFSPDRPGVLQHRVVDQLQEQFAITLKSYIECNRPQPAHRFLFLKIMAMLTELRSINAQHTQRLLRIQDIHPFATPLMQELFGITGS
compound,measurement,setting,value
"COc1ccc2c(c1)[C@@H]1C[C@]1(C(=O)N1[C@@H]3CC[C@H]1CN(C)C3)Cn1c-2c(C2CCCCC2)c2ccc(C(=O)NS(=O)(=O)N(C)C)cc21 [Compound 66, beclabuvir]",hPXR transactivation Y max,[1],8.1 ± 1.9
same,IC50,NS5B P495L,0.19 µM
same,IC50,CYP 3A4,> 40 µM
same,half-life,in vitro [2],23 min
same,decline in viral load,"[3]; 300 mg single dose, 24 h post-dosing",approximately 2.5 log10 IU/mL
same,tolerability,[3]; single doses 100-900 mg,well tolerated
same,AUC(0-inf),"in vivo; iv, 5 mg/kg",30 µM·h
same,Cmax,"in vivo; iv, 5 mg/kg",12.1 µM
same,half-life,"in vivo; iv, 5 mg/kg",672 min
same,AUC(0-inf),"in vivo; po, 10 mg/kg",39.3 µM·h
same,Cmax,"in vivo; po, 10 mg/kg",3.26 µM
same,EC50,[4],< 0.01 µM
same,CC50,in vitro [5],14 to 48 µM
same,IC50,[6],0.02 µM
same,half-life,in vitro [7],53 min
same,bound to human serum,,98%
same,EC50,[8],> 14 µM
same,liver levels,[9]; 4 h following oral dosing,"24,400 nM"
same,liver levels,[9]; 24 h following oral dosing,"1,700 nM"
same,Cl,"[9]; in vivo, iv, 5 mg/kg",3.5 (±0.8) mL/min/kg
same,IC50,[10],> 10 µM
same,pKa,physchem,4.6

# Reference: article PMC7123187 (HCV: The Journey from Discovery to a Cure, 2018)
